The nature of the data set: recombinant barcode read abundance after kanamycin selection (control-corrected) (log10(CPM+1)); higher = more efficient recombination; sequences stand for … in AGTGCAGAGAAAATCGGCCAGTTTTCTCTGCCTGCAGTCCGCATGCCGT…AGATTTATGCAGCGGACTGCCTTTCTCCCAAAGTGATAAACCGGACAGTATCATGGACCGGTTTTCCCGGTAATCCGTATTTGCAAGGTTGGTTTCACT; site = the 11-nt target. An outline of the steps: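 Pooled E. coli screen pairing targets with IS621 bridge RNA target-binding loops. Each oligo (promoter, target, barcode, J23119-driven first 104 bridge RNA bases) was Gibson-cloned into a vector with the remaining 73 bp and T7-inducible recombinase, then co-electroporated with a donor plasmid. Two replicates each were plated on chloramphenicol/ampicillin LB agar (control) or chloramphenicol/ampicillin/kanamycin with 0.1 mM IPTG. Recombination efficiency is recombinant-junction barcode counts as CPM, averaged, control-corrected, reported as log10(CPM+1).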
Turning to “CGCTCATCTTGGGTTCTAACCTGTTGCCT (site CGATCATCTAG)”, the “recombinant barcode read abundance (log10)” value came out at 0.214.

Regarding “CGCTCATCTTGGGTTCTAACCTGTTGCCT (site CGCTCATCTAG)”, the “recombinant barcode read abundance (log10)” value came out at 0.0416.

For the sequence “CGCTCATCTTGGGTTCTAACCTGTTGCCT (site CGGTCATCTAG)”, the “recombinant barcode read abundance (log10)” value amounted to 0.154.

As for “CGCTCATCTTGGGTTCTAACCTGTTGCCT (site CGTTCATCTAG)”, the “recombinant barcode read abundance (log10)” value was found to be 0.211.

For the sequence “CGCTCGACTTGGGTTCTAACCTGTTGCCT (site CGCTAGACTAG)”, the “recombinant barcode read abundance (log10)” value worked out at 0.596.

In the case of “CGCTCGACTTGGGTTCTAACCTGTTGCCT (site CGCTCGACTAG)”, the “recombinant barcode read abundance (log10)” value came to 0.0944.

As to “CGCTCGACTTGGGTTCTAACCTGTTGCCT (site CGCTGGACTAG)”, the “recombinant barcode read abundance (log10)” value came to 0.188.

With “CGCTCGACTTGGGTTCTAACCTGTTGCCT (site CGCTTGACTAG)”, the “recombinant barcode read abundance (log10)” value is 0.0207.

Regarding “CGCTGGCCTTGGGTTCTAACCTGTTGCTT (site CGCTGACCTAA)”, the “recombinant barcode read abundance (log10)” value was determined as 0.033.

“CGCTGGCCTTGGGTTCTAACCTGTTGCTT (site CGCTGCCCTAA)”: the “recombinant barcode read abundance (log10)” value is 0.112.

On to “CGCTGGCCTTGGGTTCTAACCTGTTGCTT (site CGCTGGCCTAA)”, for which the “recombinant barcode read abundance (log10)” value was 0.162.

As for “CGCTGGCCTTGGGTTCTAACCTGTTGCTT (site CGCTGTCCTAA)”, the “recombinant barcode read abundance (log10)” value amounted to 0.0658.

“CGCTTGACTTGGGTTCTAACCTGTTGCCT (site CGCTAGACTAG)”: the “recombinant barcode read abundance (log10)” value worked out at 0.0413.

For “CGCTTGACTTGGGTTCTAACCTGTTGCCT (site CGCTCGACTAG)”, the “recombinant barcode read abundance (log10)” value was determined as 0.164.

Take “CGCTTGACTTGGGTTCTAACCTGTTGCCT (site CGCTGGACTAG)”: the “recombinant barcode read abundance (log10)” value amounted to 0.131.

As to “CGCTTGACTTGGGTTCTAACCTGTTGCCT (site CGCTTGACTAG)”, the “recombinant barcode read abundance (log10)” value came to 0.00854.

Turning to “CGCTTTACTTGGGTTCTAACCTGTTGCCG (site CGCTTTACTCG)”, the “recombinant barcode read abundance (log10)” value is 0.104.

For “CGCTTTACTTGGGTTCTAACCTGTTGCCG (site TAGACATCTAC)”, the “recombinant barcode read abundance (log10)” value stood at 0.0706.

As for “CGGAAATCTTGGGTTCTAACCTGTTGCCT (site CGAAAATCTAG)”, the “recombinant barcode read abundance (log10)” value was 0.171.

As for “CGGAAATCTTGGGTTCTAACCTGTTGCCT (site CGCAAATCTAG)”, the “recombinant barcode read abundance (log10)” value stood at 0.0224.

For “CGGAAATCTTGGGTTCTAACCTGTTGCCT (site CGGAAATCTAG)”, the “recombinant barcode read abundance (log10)” value was found to be 0.127.

Consider “CGGAAATCTTGGGTTCTAACCTGTTGCCT (site CGTAAATCTAG)”, for which the “recombinant barcode read abundance (log10)” value was 0.0515.

With “CGGAACACTTGGGTTCTAACCTGTTGCGG (site CGGAACACTCC)”, the “recombinant barcode read abundance (log10)” value was 2.84.

Consider “CGGAACACTTGGGTTCTAACCTGTTGCGG (site CGGCACACTCC)”, for which the “recombinant barcode read abundance (log10)” value was 0.755.

“CGGAACACTTGGGTTCTAACCTGTTGCGG (site CGGGACACTCC)”: the “recombinant barcode read abundance (log10)” value came to 0.908.

In the case of “CGGAACACTTGGGTTCTAACCTGTTGCGG (site CGGTACACTCC)”, the “recombinant barcode read abundance (log10)” value came out at 1.08.

Regarding “CGGAATGCTTGGGTTCTAACCTGTTGCCT (site CGAAATGCTAG)”, the “recombinant barcode read abundance (log10)” value worked out at 0.198.

Take “CGGAATGCTTGGGTTCTAACCTGTTGCCT (site CGCAATGCTAG)”: the “recombinant barcode read abundance (log10)” value was determined as 0.0762.

Turning to “CGGAATGCTTGGGTTCTAACCTGTTGCCT (site CGGAATGCTAG)”, the “recombinant barcode read abundance (log10)” value was found to be 1.38.

For “CGGAATGCTTGGGTTCTAACCTGTTGCCT (site CGTAATGCTAG)”, the “recombinant barcode read abundance (log10)” value was 0.0616.

“CGGACGACTTGGGTTCTAACCTGTTGCCT (site CGGACGACTAG)”: the “recombinant barcode read abundance (log10)” value amounted to 0.963.

For the sequence “CGGACGACTTGGGTTCTAACCTGTTGCCT (site CGGACGCCTAG)”, the “recombinant barcode read abundance (log10)” value is 0.0677.

“CGGACGACTTGGGTTCTAACCTGTTGCCT (site CGGACGGCTAG)”: the “recombinant barcode read abundance (log10)” value was 0.0816.

“CGGACGACTTGGGTTCTAACCTGTTGCCT (site CGGACGTCTAG)”: the “recombinant barcode read abundance (log10)” value is 0.111.

In the case of “CGGAGCCCTTGGGTTCTAACCTGTTGCGG (site AGGAGCCCTTC)”, the “recombinant barcode read abundance (log10)” value was found to be 0.0728.

Regarding “CGGAGCCCTTGGGTTCTAACCTGTTGCGG (site CGGAGCCCTCC)”, the “recombinant barcode read abundance (log10)” value came out at 1.82.

As to “CGGATCGCTTGGGTTCTAACCTGTTGCCT (site CGGATAGCTAG)”, the “recombinant barcode read abundance (log10)” value was 0.079.

Take “CGGATCGCTTGGGTTCTAACCTGTTGCCT (site CGGATCGCTAG)”: the “recombinant barcode read abundance (log10)” value came out at 1.76.

“CGGATCGCTTGGGTTCTAACCTGTTGCCT (site CGGATGGCTAG)”: the “recombinant barcode read abundance (log10)” value is 0.153.

With “CGGATCGCTTGGGTTCTAACCTGTTGCCT (site CGGATTGCTAG)”, the “recombinant barcode read abundance (log10)” value was found to be 0.271.

As for “CGGCATACTTGGGTTCTAACCTGTTGCCT (site CAGCATACTAG)”, the “recombinant barcode read abundance (log10)” value amounted to 0.0864.

As to “CGGCATACTTGGGTTCTAACCTGTTGCCT (site CCGCATACTAG)”, the “recombinant barcode read abundance (log10)” value stood at 0.0245.

“CGGCATACTTGGGTTCTAACCTGTTGCCT (site CGGCATACTAG)”: the “recombinant barcode read abundance (log10)” value was determined as 0.66.

In the case of “CGGCATACTTGGGTTCTAACCTGTTGCCT (site CTGCATACTAG)”, the “recombinant barcode read abundance (log10)” value was found to be 0.

Consider “CGGCCACCTTGGGTTCTAACCTGTTGCCT (site CGGCCACCTAG)”, for which the “recombinant barcode read abundance (log10)” value was found to be 2.02.

As to “CGGCCACCTTGGGTTCTAACCTGTTGCCT (site TGGCCACCTAG)”, the “recombinant barcode read abundance (log10)” value was 0.0718.

As to “CGGCCTACTTGGGTTCTAACCTGTTGCTT (site CGGCCTACTAA)”, the “recombinant barcode read abundance (log10)” value stood at 0.659.

For “CGGCCTACTTGGGTTCTAACCTGTTGCTT (site CGGCTTCCTAA)”, the “recombinant barcode read abundance (log10)” value amounted to 0.137.

As to “CGGCGTCCTTGGGTTCTAACCTGTTGCCG (site CGGCGTCCTAG)”, the “recombinant barcode read abundance (log10)” value came out at 0.498.

Take “CGGCGTCCTTGGGTTCTAACCTGTTGCCG (site CGGCGTCCTCG)”: the “recombinant barcode read abundance (log10)” value came out at 0.197.

As for “CGGCTGTCTTGGGTTCTAACCTGTTGCCT (site CGGCTGTCTAG)”, the “recombinant barcode read abundance (log10)” value was 1.28.

For “CGGCTGTCTTGGGTTCTAACCTGTTGCCT (site GTAGGAACTCA)”, the “recombinant barcode read abundance (log10)” value was 0.0275.

Regarding “CGGCTTCCTTGGGTTCTAACCTGTTGCTT (site CGGCCTACTAA)”, the “recombinant barcode read abundance (log10)” value was found to be 0.209.

Turning to “CGGCTTCCTTGGGTTCTAACCTGTTGCTT (site CGGCTTCCTAA)”, the “recombinant barcode read abundance (log10)” value was 0.104.

For the sequence “CGGGCCTCTTGGGTTCTAACCTGTTGCAC (site CGGGCCTCTGT)”, the “recombinant barcode read abundance (log10)” value turned out to be 3.19.

On to “CGGGCCTCTTGGGTTCTAACCTGTTGCAC (site CGGTCCTCTGC)”, for which the “recombinant barcode read abundance (log10)” value came to 0.209.

“CGGGCCTCTTGGGTTCTAACCTGTTGCTC (site CGGGCCTCTAA)”: the “recombinant barcode read abundance (log10)” value amounted to 0.752.

Regarding “CGGGCCTCTTGGGTTCTAACCTGTTGCTC (site CGGGCCTCTCA)”, the “recombinant barcode read abundance (log10)” value turned out to be 0.0404.

Turning to “CGGGCCTCTTGGGTTCTAACCTGTTGCTC (site CGGGCCTCTGA)”, the “recombinant barcode read abundance (log10)” value stood at 1.23.

For the sequence “CGGGCCTCTTGGGTTCTAACCTGTTGCTC (site CGGGCCTCTTA)”, the “recombinant barcode read abundance (log10)” value turned out to be 0.0944.

With “CGGTACCCTTGGGTTCTAACCTGTTGCGG (site CAGCACCCTCC)”, the “recombinant barcode read abundance (log10)” value turned out to be 0.64.

In the case of “CGGTACCCTTGGGTTCTAACCTGTTGCGG (site CGGTACCCTCC)”, the “recombinant barcode read abundance (log10)” value was found to be 3.11.

Turning to “CGGTCCGCTTGGGTTCTAACCTGTTGCCT (site AGATCCGCTAG)”, the “recombinant barcode read abundance (log10)” value is 0.103.

With “CGGTCCGCTTGGGTTCTAACCTGTTGCCT (site CGGTCCGCTAG)”, the “recombinant barcode read abundance (log10)” value stood at 1.52.

Consider “CGGTCGCCTTGGGTTCTAACCTGTTGCAT (site CGGTCGCCTAT)”, for which the “recombinant barcode read abundance (log10)” value is 0.839.

Take “CGGTCGCCTTGGGTTCTAACCTGTTGCAT (site CGGTTGCCTAC)”: the “recombinant barcode read abundance (log10)” value is 0.153.

For “CGTAAATCTTGGGTTCTAACCTGTTGCCT (site CGAAAATCTAG)”, the “recombinant barcode read abundance (log10)” value was determined as 0.0185.

Turning to “CGTAAATCTTGGGTTCTAACCTGTTGCCT (site CGCAAATCTAG)”, the “recombinant barcode read abundance (log10)” value turned out to be 0.0232.

“CGTAAATCTTGGGTTCTAACCTGTTGCCT (site CGGAAATCTAG)”: the “recombinant barcode read abundance (log10)” value came to 0.15.

For “CGTAAATCTTGGGTTCTAACCTGTTGCCT (site CGTAAATCTAG)”, the “recombinant barcode read abundance (log10)” value came out at 0.146.

In the case of “CGTACCTCTTGGGTTCTAACCTGTTGCTA (site CGTACCTCTAA)”, the “recombinant barcode read abundance (log10)” value was determined as 0.124.

Consider “CGTACCTCTTGGGTTCTAACCTGTTGCTA (site CGTACCTCTCA)”, for which the “recombinant barcode read abundance (log10)” value is 0.123.

“CGTACCTCTTGGGTTCTAACCTGTTGCTA (site CGTACCTCTGA)”: the “recombinant barcode read abundance (log10)” value was determined as 0.0598.

Take “CGTACCTCTTGGGTTCTAACCTGTTGCTA (site CGTACCTCTTA)”: the “recombinant barcode read abundance (log10)” value worked out at 0.166.

For the sequence “CGTACCTCTTGGGTTCTAACCTGTTGCTT (site CGTACCTCTAA)”, the “recombinant barcode read abundance (log10)” value was 0.579.

With “CGTACCTCTTGGGTTCTAACCTGTTGCTT (site CGTACCTCTCA)”, the “recombinant barcode read abundance (log10)” value was determined as 0.125.

As for “CGTACCTCTTGGGTTCTAACCTGTTGCTT (site CGTACCTCTGA)”, the “recombinant barcode read abundance (log10)” value stood at 0.406.
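Note: IS621 recombinase and bridge RNA in Escherichia coli cells.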
